Like-named read-outs stand apart in the source and are kept apart here.
Columns and labels:
A549 cells = assay: MTT cytotoxicity assay, A549 lung cancer cells; assay type: cell-based, human; conditions: for IC50: Homo sapiens, A549, 72 h, MTT test, 72 h of drug treatment, read-out: A549 IC50 (μM) ± SD
Description: (§1) Compounds active against at least one kinase among EGFR and class III RTKs were evaluated for their cytotoxic properties against two different human cancer cell lines, namely non small cells A549 lung cancer cells (sensitive to EGFR inhibitors)[46] and pancreatic BxPC3 adenocarcinoma (sensitive to both PDGFRβ and EGFR inhibitors)[47][48] cells. […] The results, expressed as IC50 values (μM) calculated from the dose-survival curves obtained after 72 h of drug treatment from the MTT test, are reported in Table 1.
(§2) All compounds, except derivative 27, were dissolved in DMSO just before the experiment, and a calculated amount of drug solution was added to the cell growth medium to a final solvent concentration of 0.5%, which had no discernible effect on cell killing. Compound 27 was dissolved in a 0.9% NaCl solution just before the experiment.
(§3) Human lung (A549), breast (MCF-7), pancreas (BxPC3), and colon (LoVo) carcinoma cell lines along with melanoma (A375) were obtained from American Type Culture Collection (ATCC, Rockville, MD). Human non-tumor embryonic kidney HEK293 cells were obtained from European Collection of Cell Cultures (ECACC, Salisbury, UK). Human cervical carcinoma A431cells were kindly provided by Prof. F. Zunino (Division of Experimental Oncology B, Istituto Nazionale dei Tumori, Milan, Italy). Human ovarian cancer 2008 cells were kindly provided by Prof. G. Marverti (Dept. of Biomedical Science of Modena University, Italy). Cell lines were maintained in the logarithmic phase at 37 °C in a 5% carbon dioxide atmosphere using the following culture media containing 10% fetal calf serum (Euroclone, Milan, Italy), antibiotics (50 units ∙ mL^−1 penicillin and 50 μg ∙ mL^−1 streptomycin) and 2 mM l-glutamine: i) RPMI-1640 medium (Euroclone) for MCF-7, A431, BxPC3 and 2008 cells; ii) F-12 HAM’S (Sigma Chemical Co.) for A549 and LoVo cells; iii) D-MEM medium (Euroclone) for HEK293 cells.
(§4) The growth inhibitory effect towards human cell lines was evaluated by means of MTT (tetrazolium salt reduction) assay. Briefly, 3–8 ∙ 10^3 cells/well, dependent upon the growth characteristics of the cell line, were seeded in 96-well microplates in growth medium (100 μL) and then incubated at 37 °C in a 5% carbon dioxide atmosphere. After 24 h, the medium was removed and replaced with a fresh one containing the test compound at the appropriate concentration. Triplicate cultures were established for each treatment. After 72 h, each well was treated with 10 μL of a 5 mg ∙ mL-1 MTT (3-(4,5-dimethylthiazol-2-yl)-2,5-diphenyltetrazolium bromide) saline solution, and after 5 h additional incubation, 100 μL of a sodium dodecylsulfate (SDS) solution in HCl 0.01 M were added. After overnight incubation, the inhibition of cell growth induced by the tested complexes was detected by measuring the absorbance of each well at 570 nm using a Bio-Rad 680 microplate reader (Bio-Rad, Hercules, CA). Mean absorbance for each drug dose was expressed as a percentage of the control untreated well absorbance and plotted vs drug concentration.

BxPC3 cells = assay: MTT cytotoxicity assay, BxPC3 pancreatic adenocarcinoma cells; assay type: cell-based, human; conditions: for IC50: Homo sapiens, BXPC-3, MTT test, 72 h of drug treatment, read-out: BxPC3 IC50 (μM) ± SD
Description: as §1, §2, §3, §4

HEK293 cells = assay: MTT cytotoxicity assay, non-tumor HEK293 cells; assay type: cell-based, human; conditions: for IC50: Homo sapiens, HEK293, MTT test, 72 h, non-tumor cells, read-out: HEK293 IC50 (μM) ± SD
Description: F. Zunino (Division of Experimental Oncology B, Istituto Nazionale dei Tumori, Milan, Italy).
The growth inhibitory effect towards human cell lines was evaluated by means of MTT (tetrazolium salt reduction) assay. […] Triplicate cultures were established for each treatment.

A375 cells = assay: MTT cytotoxicity assay, A375 melanoma cells; assay type: cell-based; conditions: Homo sapiens, A-375; MTT test, 72 h; read-out: A375 IC50 (μM) ± SD
Description: The cytotoxic profile of 19 and 27 was assessed on a wider panel of human tumor cell lines including also examples of breast (MCF-7), cervical (A431), colorectal (HCT-15), and ovarian (2008) cancers as well as melanoma (A375), besides lung (A549) and pancreatic (BxPC3) cancer cells. IC50 values, calculated from the dose-survival curves obtained after 72 h of drug treatment from the MTT test, are reported in Table 2. […] Both compounds were endowed with a cytotoxic potency higher than that of SU, eliciting IC50 values in the low micromolar range.
as §2
Human lung (A549), breast (MCF-7), pancreas (BxPC3), and colon (LoVo) carcinoma cell lines along with melanoma (A375) were obtained from American Type Culture Collection (ATCC, Rockville, MD). Human non-tumor embryonic kidney HEK293 cells were obtained from European Collection of Cell Cultures (ECACC, Salisbury, UK). Human cervical carcinoma A431cells were kindly provided by Prof. F. Zunino (Division of Experimental Oncology B, Istituto Nazionale dei Tumori, Milan, Italy). Human ovarian cancer 2008 cells were kindly provided by Prof. G. Marverti (Dept. of Biomedical Science of Modena University, Italy). […]
The growth inhibitory effect towards human cell lines was evaluated by means of MTT (tetrazolium salt reduction) assay. […] After overnight incubation, the inhibition of cell growth induced by the tested complexes was detected by measuring the absorbance of each well at 570 nm using a Bio-Rad 680 microplate reader (Bio-Rad, Hercules, CA). Mean absorbance for each drug dose was expressed as a percentage of the control untreated well absorbance and plotted vs drug concentration.

CSF1R = molecular target: T1, CSF1R (Homo sapiens, UniProt P07333); assay: KinomeScan Kd determination, CSF1R; assay type: binding; conditions: for KdRTK/KdKIT, CSF1R: Kd CSF1R over Kd KIT; for Kd: KinomeScan
T1 construct: purchased DiscoverX (KinomeScan service)
T1 sequence (P07333 20-972): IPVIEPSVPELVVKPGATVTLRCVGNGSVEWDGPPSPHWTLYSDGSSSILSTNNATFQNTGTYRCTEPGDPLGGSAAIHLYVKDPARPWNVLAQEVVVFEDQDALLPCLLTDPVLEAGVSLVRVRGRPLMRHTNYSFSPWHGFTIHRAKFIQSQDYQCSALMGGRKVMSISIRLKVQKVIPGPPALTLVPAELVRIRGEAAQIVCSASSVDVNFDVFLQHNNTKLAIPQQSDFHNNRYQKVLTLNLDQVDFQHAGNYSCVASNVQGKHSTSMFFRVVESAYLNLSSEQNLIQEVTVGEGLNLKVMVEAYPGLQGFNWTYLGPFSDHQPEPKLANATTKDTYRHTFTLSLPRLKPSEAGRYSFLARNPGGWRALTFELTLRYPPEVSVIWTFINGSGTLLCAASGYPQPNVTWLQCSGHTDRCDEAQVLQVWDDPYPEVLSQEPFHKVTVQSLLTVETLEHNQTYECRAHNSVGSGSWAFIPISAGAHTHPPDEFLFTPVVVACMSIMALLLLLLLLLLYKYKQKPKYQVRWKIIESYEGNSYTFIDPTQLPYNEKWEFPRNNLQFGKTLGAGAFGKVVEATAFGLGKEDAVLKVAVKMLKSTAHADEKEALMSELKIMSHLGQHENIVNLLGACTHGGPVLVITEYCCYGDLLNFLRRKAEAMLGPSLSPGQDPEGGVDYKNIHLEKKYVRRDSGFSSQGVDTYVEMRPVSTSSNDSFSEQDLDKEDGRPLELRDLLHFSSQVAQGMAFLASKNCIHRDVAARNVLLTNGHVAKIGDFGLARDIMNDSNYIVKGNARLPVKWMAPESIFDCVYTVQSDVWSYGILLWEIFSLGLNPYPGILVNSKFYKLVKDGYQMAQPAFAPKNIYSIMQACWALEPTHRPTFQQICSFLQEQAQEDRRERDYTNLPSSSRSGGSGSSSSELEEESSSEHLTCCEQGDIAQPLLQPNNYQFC
Description: (§5) The compounds were evaluated using the KinomeScan™ platform (http://www.discoverx.com/services/drug-discovery-development-services/kinase-profiling/kinomescan), that measures the ability of the test compound to disrupt the complex between a high affinity ATP-mimic probe immobilized on a solid support and the kinase of interest. The KinomeScan is a very helpful technology for the fast and reliable screening of a number of compounds against a wide and customizable panel of kinases. Besides, it is not based on the use of hazardous radioactive ^32P-ATP and has a very low rate of false positive (<1%)[44]. The screening platform outputs a “Percent of Control” (POC) value, statistically correlated to the dissociation constant (Kd) value (http://www.discoverx.com/tools-resources/leadhunter-study-reports-data-analysis), for each pair of kinase/ligand. The POC is calculated as reported in equation (1): […]
(§6) The ability of compounds 19 and 27 to bind the class III RTK members was measured (Table 2; see also Figs S3 and S4 for dose/response curves).
(§7) Figure S3. Dose/response curve for compound 19 against tested kinases for Kd determination. The amount of kinase measured by qPCR (Signal; y-axis) is plotted against the corresponding compound concentration in nM in log10 scale (x-axis). Data points marked with an "x" were not used for Kd determination.
(§8) (1 picture or pasted object on this page, not shown here)
(§9) Figure S4. Dose/response curve for compound 27 against tested kinases for Kd

PDGFRα = molecular target: T2, PDGFRα (Homo sapiens, UniProt P16234); assay: KinomeScan Kd determination, PDGFRα; assay type: binding; conditions: for KdRTK/KdKIT, PDGFRα: Kd PDGFRα over Kd KIT; for Kd: KinomeScan
T2 construct: purchased DiscoverX (KinomeScan service)
T2 sequence (P16234 24-1089): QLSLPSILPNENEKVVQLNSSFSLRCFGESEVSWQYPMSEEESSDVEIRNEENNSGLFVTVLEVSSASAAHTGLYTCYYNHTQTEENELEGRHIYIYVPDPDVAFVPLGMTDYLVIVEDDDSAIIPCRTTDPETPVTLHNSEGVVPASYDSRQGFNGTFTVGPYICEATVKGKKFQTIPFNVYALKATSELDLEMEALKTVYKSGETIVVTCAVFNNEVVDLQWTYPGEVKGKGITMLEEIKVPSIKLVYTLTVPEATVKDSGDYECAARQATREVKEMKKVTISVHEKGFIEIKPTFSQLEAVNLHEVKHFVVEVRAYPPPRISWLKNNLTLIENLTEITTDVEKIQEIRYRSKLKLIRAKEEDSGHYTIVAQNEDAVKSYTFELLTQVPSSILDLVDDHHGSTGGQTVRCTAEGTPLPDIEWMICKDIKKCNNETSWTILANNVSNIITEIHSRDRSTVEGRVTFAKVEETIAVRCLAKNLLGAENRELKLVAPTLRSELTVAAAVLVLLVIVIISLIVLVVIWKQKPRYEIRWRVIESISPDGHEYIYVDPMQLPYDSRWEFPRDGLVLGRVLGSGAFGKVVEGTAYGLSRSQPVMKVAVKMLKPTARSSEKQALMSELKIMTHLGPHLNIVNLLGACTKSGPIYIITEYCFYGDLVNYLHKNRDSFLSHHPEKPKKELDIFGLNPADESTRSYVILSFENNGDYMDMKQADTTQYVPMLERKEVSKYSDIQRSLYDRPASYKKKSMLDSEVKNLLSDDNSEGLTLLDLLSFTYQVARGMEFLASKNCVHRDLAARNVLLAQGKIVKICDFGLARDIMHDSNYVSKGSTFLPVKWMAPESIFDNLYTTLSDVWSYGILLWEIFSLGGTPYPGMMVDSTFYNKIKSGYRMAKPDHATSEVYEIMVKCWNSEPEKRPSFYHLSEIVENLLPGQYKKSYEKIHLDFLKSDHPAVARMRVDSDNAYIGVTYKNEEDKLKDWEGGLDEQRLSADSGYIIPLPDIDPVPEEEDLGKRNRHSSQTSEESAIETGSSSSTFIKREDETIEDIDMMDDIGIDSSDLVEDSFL
Description: as §5, §6, §7, §8, §9

Row | SMILES | IC50 (A549 cells) [µM] | IC50 (BxPC3 cells) [µM] | Potency relative to SU (BxPC3) (BxPC3 cells; ratio between IC50 of sunitinib and IC50 of tested compound, BxPC3) | IC50 (HEK293 cells) [µM] | IC50 (A375 cells) [µM] | Potency improvement Kd19/Kd27, CSF1R (CSF1R; 27 versus 19) | KdRTK/KdKIT, CSF1R (CSF1R) | Kd (CSF1R; bound stated, read-out: Kd against CSF1R) [nM] | Kd (CSF1R; read-out: Kd (nM) CSF1R) [nM] | Potency improvement Kd19/Kd27, PDGFRα (PDGFRα; 27 versus 19) | KdRTK/KdKIT, PDGFRα (PDGFRα) | Kd (PDGFRα) [nM] | Potency relative to SU (A549) (A549 cells; ratio between IC50 of sunitinib and IC50 of tested compound, A549) | Selectivity Index (HEK293 cells; IC50 toward non cancerous HEK293 cells divided by the average IC50 for the malignant cells (A549, BxPC3)) | Selectivity index, folds higher than that calculated with SU (HEK293 cells; SI of compound versus SI of SU)
1 | O=C(CN1CCOCC1)Nc1cccc(-c2cc(Nc3ccc(NC(=O)Nc4ccccc4)cc3)ncn2)c1 [Compound 27] | 3.11 ± 1.09 | 0.81 ± 0.32 | 6 | 10 | 5.56 ± 1.39 | 2.6 | 110 | > 1000 | 1100 | 8.7 | 11 | 110 |  |  | 
2 | O=C(Nc1ccccc1)Nc1ccc(Nc2cc(-c3ccccc3)ncn2)cc1 [Compound 19] | 3.16 ± 1.12 | 0.77 ± 0.21 |  | 7.33 ± 1.75 | 6.41 ± 2.02 |  | 132 |  | 2900 |  | 44 | 960 | 1.97 | 3.84 | approximately 1.5

From PMC4645160, “Targeting kinases with anilinopyrimidines: discovery of N-phenyl-N’-[4-(pyrimidin-4-ylamino)phenyl]urea derivatives as selective inhibitors of class III receptor tyrosine kinase subfamily” (Scientific Reports, 2015)
